Source: PubChem BioAssay (NCI)
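Abbreviation: GI50, concentration required for 50% inhibition of growth. TGI: concentration producing complete growth inhibition.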

Columns and labels:
Test in all cases: NCI tumour cell line growth inhibition, 384-well format
NCI-H460 NSCLC = tested on: NCI-H460 NSCLC
OVCAR-8 ovarian = tested on: OVCAR-8 ovarian
HOP-62 NSCLC = tested on: HOP-62 NSCLC
ACHN renal = tested on: ACHN renal
SNB-19 CNS = tested on: SNB-19 CNS
CAKI-1 renal = tested on: CAKI-1 renal
SN12C renal = tested on: SN12C renal
HT29 colon = tested on: HT29 colon
NCI-H522 lung = tested on: NCI-H522 lung
HCT-15 colon = tested on: HCT-15 colon
SW-620 colon = tested on: SW-620 colon
OVCAR-4 ovarian = tested on: OVCAR-4 ovarian
NCI-H226 lung = tested on: NCI-H226 lung
SF-295 CNS = tested on: SF-295 CNS
M14 melanoma = tested on: M14 melanoma
EKVX NSCLC = tested on: EKVX NSCLC
SK-MEL-2 melanoma = tested on: SK-MEL-2 melanoma
A549 NSCLC = tested on: A549 NSCLC
HOP-92 NSCLC = tested on: HOP-92 NSCLC
RXF 393 renal = tested on: RXF 393 renal
OVCAR-3 ovarian = tested on: OVCAR-3 ovarian
COLO 205 colon = tested on: COLO 205 colon
UACC-257 melanoma = tested on: UACC-257 melanoma
UACC-62 melanoma = tested on: UACC-62 melanoma
IGROV1 ovarian = tested on: IGROV1 ovarian
SK-MEL-28 melanoma = tested on: SK-MEL-28 melanoma
SK-MEL-5 melanoma = tested on: SK-MEL-5 melanoma
NCI/ADR-RES ovarian = tested on: NCI/ADR-RES ovarian
U251 glioblastoma = tested on: U251 glioblastoma
MCF7 breast = tested on: MCF7 breast
NCI-H23 lung = tested on: NCI-H23 lung
HCC-2998 colon = tested on: HCC-2998 colon
BT-549 breast = tested on: BT-549 breast
A498 renal = tested on: A498 renal
TK-10 renal = tested on: TK-10 renal
PC-3 prostate = tested on: PC-3 prostate
SNB-75 CNS = tested on: SNB-75 CNS
HL-60(TB) leukemia = tested on: HL-60(TB) leukemia
T-47D breast = tested on: T-47D breast
OVCAR-5 ovarian = tested on: OVCAR-5 ovarian
SF-268 CNS = tested on: SF-268 CNS
CCRF-CEM leukemia = tested on: CCRF-CEM leukemia
MDA-MB-435 melanoma = tested on: MDA-MB-435 melanoma
MOLT-4 leukemia = tested on: MOLT-4 leukemia
HS 578T breast = tested on: HS 578T breast
MDA-MB-468 breast = tested on: MDA-MB-468 breast
SK-OV-3 ovarian = tested on: SK-OV-3 ovarian
SF-539 CNS = tested on: SF-539 CNS
RPMI-8226 leukemia = tested on: RPMI-8226 leukemia
786-0 renal = tested on: 786-0 renal
SR leukemia = tested on: SR leukemia
NCI-H322M lung = tested on: NCI-H322M lung
DU-145 prostate = tested on: DU-145 prostate
MDA-MB-231 breast = tested on: MDA-MB-231 breast
KM12 colon = tested on: KM12 colon

SMILES: O=C1c2ccccc2-c2n[nH]c3cccc1c23
- GI50 (NCI-H460 NSCLC): 6.56 µM
- TGI (NCI-H460 NSCLC): 37.6 µM
- GI50 (OVCAR-8 ovarian): 22.1 µM
- TGI (OVCAR-8 ovarian): > 100 µM
- GI50 (HOP-62 NSCLC): 14.8 µM
- TGI (HOP-62 NSCLC): 69.1 µM
- GI50 (ACHN renal): 11 µM
- TGI (ACHN renal): 46.8 µM
- GI50 (SNB-19 CNS): 45.1 µM
- TGI (SNB-19 CNS): > 100 µM
- GI50 (CAKI-1 renal): 3.39 µM
- TGI (CAKI-1 renal): 14.9 µM
- GI50 (SN12C renal): 23.3 µM
- TGI (SN12C renal): > 100 µM
- GI50 (HT29 colon): 11.4 µM
- TGI (HT29 colon): > 100 µM
- GI50 (NCI-H522 lung): 7.22 µM
- TGI (NCI-H522 lung): 53.5 µM
- GI50 (HCT-15 colon): 4.63 µM
- TGI (HCT-15 colon): > 100 µM
- GI50 (SW-620 colon): 11.7 µM
- TGI (SW-620 colon): > 100 µM
- GI50 (OVCAR-4 ovarian): 32 µM
- TGI (OVCAR-4 ovarian): > 100 µM
- GI50 (NCI-H226 lung): 2.26 µM
- TGI (NCI-H226 lung): 11.7 µM
- GI50 (SF-295 CNS): 34.1 µM
- TGI (SF-295 CNS): > 100 µM
- GI50 (M14 melanoma): 5.93 µM
- TGI (M14 melanoma): 58.9 µM
- GI50 (EKVX NSCLC): 4.49 µM
- TGI (EKVX NSCLC): > 100 µM
- GI50 (SK-MEL-2 melanoma): 5.03 µM
- TGI (SK-MEL-2 melanoma): 17 µM
- GI50 (A549 NSCLC): 15.8 µM
- TGI (A549 NSCLC): > 100 µM
- GI50 (HOP-92 NSCLC): 20 µM
- TGI (HOP-92 NSCLC): > 100 µM
- GI50 (RXF 393 renal): 11.7 µM
- TGI (RXF 393 renal): 81.4 µM
- GI50 (OVCAR-3 ovarian): 20.2 µM
- TGI (OVCAR-3 ovarian): > 100 µM
- GI50 (COLO 205 colon): 10.3 µM
- TGI (COLO 205 colon): 26 µM
- GI50 (UACC-257 melanoma): 27.9 µM
- TGI (UACC-257 melanoma): > 100 µM
- GI50 (UACC-62 melanoma): 15.5 µM
- TGI (UACC-62 melanoma): > 100 µM
- GI50 (IGROV1 ovarian): 4.82 µM
- TGI (IGROV1 ovarian): 64.6 µM
- GI50 (SK-MEL-28 melanoma): 74.8 µM
- TGI (SK-MEL-28 melanoma): > 100 µM
- GI50 (SK-MEL-5 melanoma): 5.77 µM
- TGI (SK-MEL-5 melanoma): 26.6 µM
- GI50 (NCI/ADR-RES ovarian): 53.9 µM
- TGI (NCI/ADR-RES ovarian): > 100 µM
- GI50 (U251 glioblastoma): 9.02 µM
- TGI (U251 glioblastoma): > 100 µM
- GI50 (MCF7 breast): 37.4 µM
- TGI (MCF7 breast): > 100 µM
- GI50 (NCI-H23 lung): 19.8 µM
- TGI (NCI-H23 lung): > 100 µM
- GI50 (HCC-2998 colon): 3.74 µM
- TGI (HCC-2998 colon): 43.5 µM
- GI50 (BT-549 breast): 3.72 µM
- TGI (BT-549 breast): 49.7 µM
- GI50 (A498 renal): 3 µM
- TGI (A498 renal): 84.6 µM
- GI50 (TK-10 renal): 4.21 µM
- TGI (TK-10 renal): > 100 µM
- GI50 (PC-3 prostate): 20.8 µM
- TGI (PC-3 prostate): > 100 µM
- GI50 (SNB-75 CNS): 1.87 µM
- TGI (SNB-75 CNS): 41.5 µM
- GI50 (HL-60(TB) leukemia): 10.4 µM
- TGI (HL-60(TB) leukemia): > 100 µM
- GI50 (T-47D breast): 21.5 µM
- TGI (T-47D breast): > 100 µM
- GI50 (OVCAR-5 ovarian): 17.8 µM
- TGI (OVCAR-5 ovarian): > 100 µM
- GI50 (SF-268 CNS): 5.72 µM
- TGI (SF-268 CNS): 57 µM
- GI50 (CCRF-CEM leukemia): 6 µM
- TGI (CCRF-CEM leukemia): 25.2 µM
- GI50 (MDA-MB-435 melanoma): 17.4 µM
- TGI (MDA-MB-435 melanoma): > 100 µM
- GI50 (MOLT-4 leukemia): 1.74 µM
- TGI (MOLT-4 leukemia): 3.76 µM
- GI50 (HS 578T breast): 5.63 µM
- TGI (HS 578T breast): 71.2 µM
- GI50 (MDA-MB-468 breast): 2.72 µM
- TGI (MDA-MB-468 breast): 12.5 µM
- GI50 (SK-OV-3 ovarian): 3.03 µM
- TGI (SK-OV-3 ovarian): 14.6 µM
- GI50 (SF-539 CNS): 8.72 µM
- TGI (SF-539 CNS): 97.4 µM
- GI50 (RPMI-8226 leukemia): 4.09 µM
- TGI (RPMI-8226 leukemia): 30 µM
- GI50 (786-0 renal): 19.2 µM
- TGI (786-0 renal): > 100 µM
- GI50 (SR leukemia): 2.38 µM
- TGI (SR leukemia): 6.99 µM
- GI50 (NCI-H322M lung): 32.4 µM
- TGI (NCI-H322M lung): > 100 µM
- GI50 (DU-145 prostate): 14.7 µM
- TGI (DU-145 prostate): > 100 µM
- GI50 (MDA-MB-231 breast): 13.9 µM
- TGI (MDA-MB-231 breast): > 100 µM
- GI50 (KM12 colon): 2.78 µM
- TGI (KM12 colon): > 100 µM
